Publication PMC9604325 (International Journal of Molecular Sciences, 2022)

Legend:
[1] = tested on: store-operated calcium entry (SOCE) in HT-22 cells; assay: SOCE Ca2+ imaging in Fluo3-loaded HT-22 cells (Tg-induced store release, then Ca2+ entry); type: cell-based, mouse
Protocol: (§1) Cytosolic Ca^2+ imaging was assessed in the HT-22 cell culture with the fluorescent probe Fluo3-AM. […] The untread cells were regarded as the controls. […] Then, the cells were washed once with 1 mL of MLocke’s K5 buffer, and the 35 mm culture dishes were placed in the thermostatic plate at 37 °C (Warner Instrument Co., Hamden, CT, USA) of the Nikon Diaphot 300 inverted epifluorescence microscope (Tokyo, Japan) with an NCF Plan ELWD 40× objective (the pixel size of the images shown in this work was 0.2 μm). The images of the Fluo3-loaded cells were acquired with the Hamamatsu Orca-R^2 CCD camera (binning mode 2 × 2) with an excitation filter of 470 nm, a dichroic mirror of 510 nm with an emission filter of 520 nm, and a 0.3 s exposure time. […] The depletion of the Ca^2+ stores was triggered by adding 2 μM of the SERCA pump blocker Tg plus ethylene glycol tetraacetic acid (1 mM), in a Ca^2+-free Mlocke’s K5 buffer. Then, the SOCE was measured after the addition of 3 mM of CaCl2 to the Tg-containing medium. […] The activity of the RyR Ca^2+-leak channels was evaluated by incubation with 100 μM of the RyR antagonist ryanodine for 1 h in the HT-22 culture media. In all experiments with antagonists, we performed the respective dimethylsulfoxide vehicle controls.

HT-22 cells [2] = assay: Mitochondrial membrane potential, TMRE assay; type: cell-based, mouse
Protocol: Mitochondrial depolarization was monitored with the fluorescent dye TMRE, as previously described, with small changes. […] Then, the HT-22 culture dishes were placed in the thermostatic plate at 37 °C of the inverted epifluorescence microscope and the fluorescence kinetic was recorded at 556 nm excitation filter and a dichroic mirror of 580 nm with an emission filter of 590 nm and a time of exposure 0.01 s. To assess the level of the mitochondrial membrane depolarization, 5 μM of a potent mitochondrial oxidative phosphorylation uncoupler FCCP was added to the medium. The region of interest (ROI) tool of the HCImage software was used for the quantitative analysis. The average fluorescence intensity readings per pixel in the HT-22 cells were taken from several fields for a total number of 80 cells.

HT22 cells = assay: Intracellular calcium response of Fluo3-loaded HT22 cells to cholinergic agonists; type: cell-based, mouse; settings: for intracellular calcium response in the majority of the cells: Fluo3-loaded HT22 cells
Protocol: as §1
Supplementary Figure S8. Representative kinetic traces of the average fluorescence intensity of Fluo3-loaded
HT22 cells (Ft/F0) recorded over time every 15 s intervals
Ca2+ entry mediated by cholinergic receptors. The data shown are the means ±SEM of n =16 cells.
(1 picture or pasted object on this page, not shown here)

HT-22 cells [3] = assay: Internalization of Aβ(1-42) in living HT-22 cells (red fluorescence of Aβ(1-42)*555, calibration curve); type: cell-based, mouse; settings: 2 μM Aβ(1-42) total (unlabeled plus Aβ(1-42)*555) in culture medium, 37 °C, 5% CO2, red fluorescence microscopy, calibration with Aβ(1-42)*555 in fixed permeabilized cells, mean ± SEM
Protocol: Then, the cells were washed once with 1 mL of MLocke’s K5, and the 35 mm dishes were placed in the holder of the microscope at 37 °C for RF imaging. The fluorescence microscopy images of the HT-22 cells were acquired with a Hamamatsu Orca-R^2 CCD camera (binning mode 2 × 2) camera (Hamamatsu, Hamamatsu-city, Japan) attached to a Nikon Diaphot 300 epifluorescence microscope (Tokyo, Japan) with an NCF Plan ELWD 40× objective, using an excitation filter of 556 nm and a dichroic mirror of 580 nm with an emission filter of 590 nm, and a 0.06 s exposure time. The ROI tool of the HCImage software was used for the quantitative analysis. The average fluorescence intensity readings per pixel in HT-22 cells were taken from several fields for a total number of 80 cells and after the subtraction of the autofluorescence. […]
Supplementary Figure S1. Calibration data were obtained with […]
medium of fixed and permeabilized HT-22 cells to calculate the internalized concentration of Aβ(1–42) in living HT-22 cells. The […]
monomers/L. The results shown are the mean ± SEM of
(also on this page, place not known: Fluorescence Intensity per pixel (A.U.))

RyR = target: T1, RyR (Mus musculus, UniProt E9Q401); assay: Tg-induced Ca2+ release from stores in Fluo3-loaded HT-22 cells with the RyR antagonist ryanodine; type: cell-based
T1 construct: incubation with 100 μM of the RyR antagonist ryanodine for 1 h in the HT-22 culture media; endogenous in cells; host or cells: HT-22 (mouse hippocampal cell line)
T1 sequence (E9Q401 whole entry): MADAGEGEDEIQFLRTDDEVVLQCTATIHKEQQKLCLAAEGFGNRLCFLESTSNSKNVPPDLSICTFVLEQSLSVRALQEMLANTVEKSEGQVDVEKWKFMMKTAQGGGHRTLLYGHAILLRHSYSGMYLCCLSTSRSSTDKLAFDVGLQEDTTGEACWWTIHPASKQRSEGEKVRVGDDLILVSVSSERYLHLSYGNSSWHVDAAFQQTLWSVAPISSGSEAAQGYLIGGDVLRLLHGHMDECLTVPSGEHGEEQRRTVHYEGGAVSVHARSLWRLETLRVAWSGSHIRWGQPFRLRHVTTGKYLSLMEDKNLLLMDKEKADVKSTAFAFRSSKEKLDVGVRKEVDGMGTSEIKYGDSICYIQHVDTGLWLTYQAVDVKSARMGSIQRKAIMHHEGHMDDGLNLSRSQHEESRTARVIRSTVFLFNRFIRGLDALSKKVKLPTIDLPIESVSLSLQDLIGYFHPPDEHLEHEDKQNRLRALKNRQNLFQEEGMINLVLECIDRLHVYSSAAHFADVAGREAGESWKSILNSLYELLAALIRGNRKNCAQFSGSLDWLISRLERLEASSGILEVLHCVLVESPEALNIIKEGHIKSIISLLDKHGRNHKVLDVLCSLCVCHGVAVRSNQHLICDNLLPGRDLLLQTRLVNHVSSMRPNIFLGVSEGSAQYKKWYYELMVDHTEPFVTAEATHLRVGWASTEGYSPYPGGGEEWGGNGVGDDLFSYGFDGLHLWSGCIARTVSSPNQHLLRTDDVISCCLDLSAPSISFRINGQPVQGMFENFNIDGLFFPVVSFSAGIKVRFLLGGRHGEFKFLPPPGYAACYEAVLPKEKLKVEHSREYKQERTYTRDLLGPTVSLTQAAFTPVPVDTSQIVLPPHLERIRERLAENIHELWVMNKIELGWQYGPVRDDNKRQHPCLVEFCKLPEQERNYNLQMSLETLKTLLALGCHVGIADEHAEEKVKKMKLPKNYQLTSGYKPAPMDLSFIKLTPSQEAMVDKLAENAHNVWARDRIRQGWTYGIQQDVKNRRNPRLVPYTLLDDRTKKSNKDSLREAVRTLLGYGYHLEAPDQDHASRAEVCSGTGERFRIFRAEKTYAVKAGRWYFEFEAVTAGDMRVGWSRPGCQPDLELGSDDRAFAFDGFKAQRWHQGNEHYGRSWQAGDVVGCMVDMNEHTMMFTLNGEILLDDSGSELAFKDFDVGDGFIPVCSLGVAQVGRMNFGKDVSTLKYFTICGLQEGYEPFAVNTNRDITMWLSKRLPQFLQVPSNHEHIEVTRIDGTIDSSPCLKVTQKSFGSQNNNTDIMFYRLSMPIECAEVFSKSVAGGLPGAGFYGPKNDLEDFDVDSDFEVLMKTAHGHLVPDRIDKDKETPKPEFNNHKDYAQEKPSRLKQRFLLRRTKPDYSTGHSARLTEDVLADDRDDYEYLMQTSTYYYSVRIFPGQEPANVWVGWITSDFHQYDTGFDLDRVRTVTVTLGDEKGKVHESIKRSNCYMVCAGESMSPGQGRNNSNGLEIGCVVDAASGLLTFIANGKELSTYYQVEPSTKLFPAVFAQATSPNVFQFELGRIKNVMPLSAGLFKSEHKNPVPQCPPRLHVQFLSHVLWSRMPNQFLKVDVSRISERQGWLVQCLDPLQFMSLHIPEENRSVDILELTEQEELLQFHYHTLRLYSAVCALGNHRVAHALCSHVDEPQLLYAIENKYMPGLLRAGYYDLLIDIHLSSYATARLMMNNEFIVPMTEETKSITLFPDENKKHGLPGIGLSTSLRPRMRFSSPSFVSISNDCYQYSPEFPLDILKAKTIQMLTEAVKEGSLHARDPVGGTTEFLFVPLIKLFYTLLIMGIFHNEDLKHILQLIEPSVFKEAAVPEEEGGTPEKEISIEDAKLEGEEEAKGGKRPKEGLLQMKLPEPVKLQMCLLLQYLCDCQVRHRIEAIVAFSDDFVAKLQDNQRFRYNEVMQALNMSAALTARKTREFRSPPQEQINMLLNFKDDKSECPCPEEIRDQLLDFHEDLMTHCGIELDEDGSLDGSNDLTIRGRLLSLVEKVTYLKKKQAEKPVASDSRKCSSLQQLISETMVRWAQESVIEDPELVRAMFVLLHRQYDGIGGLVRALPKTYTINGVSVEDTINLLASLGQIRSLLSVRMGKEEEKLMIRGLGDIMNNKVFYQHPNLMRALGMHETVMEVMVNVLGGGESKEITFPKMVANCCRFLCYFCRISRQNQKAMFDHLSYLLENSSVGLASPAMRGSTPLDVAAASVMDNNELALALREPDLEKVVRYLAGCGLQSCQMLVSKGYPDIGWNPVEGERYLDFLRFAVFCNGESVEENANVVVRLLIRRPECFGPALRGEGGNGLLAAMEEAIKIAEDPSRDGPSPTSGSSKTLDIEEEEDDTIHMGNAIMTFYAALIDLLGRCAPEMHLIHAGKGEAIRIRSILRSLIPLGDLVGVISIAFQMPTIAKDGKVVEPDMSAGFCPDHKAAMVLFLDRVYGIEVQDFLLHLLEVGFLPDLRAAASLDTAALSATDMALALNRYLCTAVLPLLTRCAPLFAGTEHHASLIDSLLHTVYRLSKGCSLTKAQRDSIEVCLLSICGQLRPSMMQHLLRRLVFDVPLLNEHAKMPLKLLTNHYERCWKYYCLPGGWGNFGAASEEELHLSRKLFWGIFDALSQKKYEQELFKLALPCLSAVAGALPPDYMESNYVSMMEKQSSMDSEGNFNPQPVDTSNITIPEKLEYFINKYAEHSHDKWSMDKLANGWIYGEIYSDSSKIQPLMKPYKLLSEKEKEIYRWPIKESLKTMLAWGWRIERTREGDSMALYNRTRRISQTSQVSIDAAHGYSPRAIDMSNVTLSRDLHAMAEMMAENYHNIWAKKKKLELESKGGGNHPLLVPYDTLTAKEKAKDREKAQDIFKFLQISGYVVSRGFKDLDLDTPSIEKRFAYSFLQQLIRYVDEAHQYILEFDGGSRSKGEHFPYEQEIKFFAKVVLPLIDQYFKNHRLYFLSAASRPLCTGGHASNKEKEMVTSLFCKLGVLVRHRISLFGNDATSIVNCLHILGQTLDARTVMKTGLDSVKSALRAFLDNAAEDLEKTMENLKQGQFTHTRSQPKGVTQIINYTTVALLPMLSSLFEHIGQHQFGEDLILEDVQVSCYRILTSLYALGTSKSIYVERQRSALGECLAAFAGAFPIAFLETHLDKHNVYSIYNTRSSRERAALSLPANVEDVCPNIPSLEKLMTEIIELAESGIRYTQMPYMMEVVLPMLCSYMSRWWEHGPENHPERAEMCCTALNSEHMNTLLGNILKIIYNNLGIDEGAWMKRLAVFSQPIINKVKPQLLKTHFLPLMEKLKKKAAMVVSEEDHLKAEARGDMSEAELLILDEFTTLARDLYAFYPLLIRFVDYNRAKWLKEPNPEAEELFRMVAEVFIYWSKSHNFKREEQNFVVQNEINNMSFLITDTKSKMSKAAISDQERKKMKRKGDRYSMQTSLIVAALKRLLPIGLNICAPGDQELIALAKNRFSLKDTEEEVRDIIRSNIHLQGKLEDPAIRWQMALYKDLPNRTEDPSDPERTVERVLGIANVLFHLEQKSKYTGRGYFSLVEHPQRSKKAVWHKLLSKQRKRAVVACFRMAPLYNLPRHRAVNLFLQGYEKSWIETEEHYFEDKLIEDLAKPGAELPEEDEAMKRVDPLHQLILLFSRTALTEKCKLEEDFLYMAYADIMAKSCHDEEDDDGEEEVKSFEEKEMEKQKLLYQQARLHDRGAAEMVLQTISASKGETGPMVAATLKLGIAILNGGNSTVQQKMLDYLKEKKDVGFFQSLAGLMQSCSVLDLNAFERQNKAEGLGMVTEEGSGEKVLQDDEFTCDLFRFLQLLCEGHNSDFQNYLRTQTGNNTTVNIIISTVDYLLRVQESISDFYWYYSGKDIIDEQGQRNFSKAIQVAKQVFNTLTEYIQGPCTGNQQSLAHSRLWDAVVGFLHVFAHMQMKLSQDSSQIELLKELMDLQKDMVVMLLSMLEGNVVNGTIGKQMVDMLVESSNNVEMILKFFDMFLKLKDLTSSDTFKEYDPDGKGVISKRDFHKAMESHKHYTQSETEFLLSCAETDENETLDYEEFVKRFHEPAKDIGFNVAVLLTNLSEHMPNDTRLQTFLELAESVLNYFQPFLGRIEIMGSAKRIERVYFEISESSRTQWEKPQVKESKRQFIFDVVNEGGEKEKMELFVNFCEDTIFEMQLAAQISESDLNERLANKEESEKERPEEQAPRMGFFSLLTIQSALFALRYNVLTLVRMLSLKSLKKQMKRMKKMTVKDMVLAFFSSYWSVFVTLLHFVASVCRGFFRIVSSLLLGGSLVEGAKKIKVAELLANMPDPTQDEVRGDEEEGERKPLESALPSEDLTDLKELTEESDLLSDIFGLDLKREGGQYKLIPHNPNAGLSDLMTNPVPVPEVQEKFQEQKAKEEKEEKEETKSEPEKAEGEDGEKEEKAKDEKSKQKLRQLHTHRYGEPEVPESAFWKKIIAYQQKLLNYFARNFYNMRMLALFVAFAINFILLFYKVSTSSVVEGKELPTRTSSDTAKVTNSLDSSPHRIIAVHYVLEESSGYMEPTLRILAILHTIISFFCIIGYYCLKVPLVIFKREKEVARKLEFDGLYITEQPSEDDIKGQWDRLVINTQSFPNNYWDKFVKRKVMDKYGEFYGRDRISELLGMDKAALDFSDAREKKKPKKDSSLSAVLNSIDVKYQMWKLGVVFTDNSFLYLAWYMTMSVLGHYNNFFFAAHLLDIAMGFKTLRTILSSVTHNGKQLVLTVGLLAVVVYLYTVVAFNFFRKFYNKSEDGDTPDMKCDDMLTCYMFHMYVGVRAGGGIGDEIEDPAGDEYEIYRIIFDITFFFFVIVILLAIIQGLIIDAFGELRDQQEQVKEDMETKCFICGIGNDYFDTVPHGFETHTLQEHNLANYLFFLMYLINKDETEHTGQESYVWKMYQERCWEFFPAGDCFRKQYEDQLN
Protocol: as §1

STIM1 = target: T2, STIM1 (Mus musculus, UniProt P70302); assay: Co-immunoprecipitation of STIM1 with anti-Aβ antibody from HT-22 lysates, Western blot; type: binding; settings: 250 nM Aβ(1-42), HT-22 cell lysates
T2 construct: endogenous in cells; host or cells: HT-22 cell lysate
Protocol: The HT-22 cells were lysed in a buffer: 25 mM of Tris(hydroxymethyl)aminomethane–HCl, pH 7.4, 150 mM of NaCl, 5 mM of ethylenediaminetetraacetic acid, 50 mM of NaF, 5 mM of NaVO3, 0.25% of Triton X-100, and 5 mM of methyl-β-cyclodextrin, supplemented with 1× […]^TM protease inhibitor cocktail. After cell centrifugation at 2000× g for 2 min at 4 °C, the supernatant was collected and supplemented with 50% glycerol. Bradford’s method was used to measure the protein concentration in HT22 lysates using the bovine serum albumin as the standard. The co-immunoprecipitation was carried out using the protein A/G PLUS-Agarose, following the instructions described by the manufacturer in the technical data sheet. […] Then, 10 μg of mouse anti-β-amyloid antibody was added to the Eppendorf tube and incubated for 1 h at 4 °C with continuous gentle shaking. Afterward, 50 μL of protein A/G PLUS-Agarose was added and incubated overnight at 4 °C with continuous shaking. […] The agarose beads were precipitated by centrifugation at 2500× g for 5 min at 4 °C in a refrigerated Eppendorf microcentrifuge. […] A centrifugation step (2500× g, 5 min at 4 °C) was performed in a refrigerated Eppendorf microcentrifuge after each washing step. […]

HT-22 cells [4] = assay: Intracellular ROS, H2DCFDA oxidation; type: cell-based, mouse; settings: 2 μM Aβ(1-42), 10 μM H2DCFDA, p < 0.05
Protocol: For the detection of intracellular ROS levels, we measured the oxidation of H2DCFDA to the fluorescent compound dichlorofluorescein, as previously described, with minor modifications. […] Then, 10 μM of H2DCFDA was added to the medium and the fluorescence intensity was recorded every 15 s for 10 min with an excitation filter of 470 nm, and 510 nm dichroic mirror/520 nm emission filter, using an exposure time of 0.2 s.

HT-22 cells [5] = assay: Cellular GSH level, monochlorobimane fluorescence; type: cell-based, mouse; settings: 2 μM Aβ(1-42), 2 h or 5 h; 10 μM MCB
Protocol: The cellular GSH level was monitored with MCB using fluorescence microscopy, as described in our previous work. Images were acquired with a Nikon Diaphot 300 epifluorescence microscope, with an excitation filter of 380 nm.
(A) Representative microscopy images
(B) Means of the average fluorescence intensity
Supplementary Figure S5. GSH levels are not altered after 2 h […]
37 ᵒC were washed once with MLocke’s K5 buffer and the plates were placed in the holder of the fluorescence microscope (37 ᵒC) for cell imaging before and after the addition of 10 μM MCB as described in the Material and Methods section.
Panel A: representative bright field and blue fluorescence images
(GS-MCB) acquired 2 min after MCB addition of untreated cells […]
exposure was 0.7 s and the scale bar inserted = 20 μm. Panel B: means of fluorescence intensity per pixel of HT-22 cells after 2 min of incubation with MCB (10 μM). The results shown are the […]
in GSH levels between untreated cells (control) and cells treated […]
(also on this page, place not known: 0 100 200 300 400 Fluorescenece (Intensity/pixel) µM Aβ(1-42) µM Aβ(1-42) n.s. n.s. Bright Blue Fluorescence Control 2h IJMS-1941218 field 2 2 of MCB 2 2 h 5 h) […]

HT-22 cells [6] = assay: Resting cytosolic Ca2+ concentration, Fura2/Fluo3-loaded HT-22 cells; type: cell-based, mouse; settings: 2 μM Aβ(1-42), control 75 ± 8 nM, mean ± SEM of triplicates, n > 60 cells
Protocol: as §1, with “vehicle controls. […]” for “vehicle controls.”

[7] = tested on: mature cerebellar granule neurons; settings: 2 h of incubation; cited from earlier work
PDI = tested on: PDI; parameters: method as in earlier work; settings: up to 200 nM Aβ(1-42), HT-22 cell lysates, isomerase assay of ref 67; cited from earlier work

For `Cc1nnsc1C(=O)Nc1ccc(-n2nc(C(F)(F)F)cc2C(F)(F)F)cc1` [BTP2, N-[4-[3,5-bis(trifluoromethyl)pyrazol-1-yl]phenyl]-4-methylthiadiazole-5-carboxamide], the “Ca2+ released from the stores after addition of Tg versus control” value ([1]; 3 μM BTP2, 15 min, control HT-22 cells) was “no significative difference” and the “decrease of Ca2+ entry through the plasma membrane relative to control without BTP2” value ([1]; 3 μM BTP2, 15 min preincubation, 37 °C, control HT-22 cells, mean ± SEM, n > 80 cells) was 71 ± 8%.

In the case of `N#CC(C#N)=NNc1ccc(OC(F)(F)F)cc1` [FCCP, trifluoromethoxy carbonylcyanide phenylhydrazone], the “mitochondria membrane potential after addition (positive control of depolarization)” value (HT-22 cells [2]; 5 μM FCCP, TMRE-loaded HT-22 cells) is reported as “large decrease”.

In the case of `CC(=O)OCC[N+](C)(C)C` [acetylcholine], the “fraction of HT22 cells showing intracellular calcium concentration peaks” value (HT22 cells; 100 μM acetylcholine, Fluo3-loaded cells) is reported as “less than 25%” and the “intracellular calcium response in the majority of the cells” value (HT22 cells) is reported as “almost negligible”.

With `C[N+](C)(C)CCOC(N)=O` [carbachol] the “intracellular calcium response in the majority of the cells” value (HT22 cells) was “almost negligible”.

For “Aβ(1-42): Unlabeled amyloid β peptide (1-42), synthesized and supplied by StabVida”, the “concentration of internalized Aβ(1-42) monomers” value (HT-22 cells [3]; 2 h) was 62 ± 11 nM, the “concentration of internalized Aβ(1-42) monomers” value (HT-22 cells [3]; 5 h) was 135 ± 15 nM and the “inhibition of Ca2+ released from stores after Tg addition” value ([1]; 2 μM Aβ(1-42) 2 h plus 3 μM BTP2 15 min, mean ± SEM) was 42 ± 6%. For the same compound, the “inhibition of Ca2+ release from the stores after Tg addition, compared with control” value ([1]; 2 μM Aβ(1-42), 2 h, 37 °C, 2 μM Tg, Ca2+-free medium, ΔF/F0, mean ± SEM, n > 80 cells) was 37 ± 7%, the “inhibition of Ca2+ entry through the plasma membrane after Ca2+ addition, compared with control” value ([1]; 2 μM Aβ(1-42), 2 h, 37 °C, 3 mM Ca2+ after Tg, ΔF/F0, mean ± SEM, n > 80 cells) was 32 ± 6% and the “SOCE induced by Aβ(1-42) in the absence of Tg” value ([1]; HT-22 cells, no thapsigargin) was “did not detect”. The “Tg-induced Ca2+ released from the stores, compared with cells treated only with Aβ(1-42)” value (RyR; 2 μM Aβ(1-42) 2 h plus 100 μM ryanodine) was “three-fold higher”, the “STIM1 co-immunoprecipitation with anti-Aβ(1-42) antibody” value (STIM1) was “formation of STIM1-Aβ complexes” and the “mitochondria membrane potential (TMRE ΔF/F0 before/after FCCP) versus control” value (HT-22 cells [2]; 2 μM Aβ(1-42), 2 h or 5 h, p > 0.05) was “not altering the mitochondria membrane potential”. For the same compound, the “increase in ROS production compared with untreated cells” value (HT-22 cells [4]; 2 h) was 1.3 fold, the “increase in ROS production compared with untreated cells” value (HT-22 cells [4]; 5 h) was 1.7 fold and the “GSH levels versus untreated cells” value (HT-22 cells [5]) was “not significantly different”. For the same compound, the “intracellular Ca2+ concentration [Ca2+]i” value (HT-22 cells [6]; 2 h) was 81 ± 9 nM, the “intracellular Ca2+ concentration [Ca2+]i” value (HT-22 cells [6]; 5 h) was 82 ± 8 nM and the “internalized Aβ(1-42)” value [7] was “about 193 ± 21 nM”. The “inhibition of PDI activity” value (PDI) was “did not significantly inhibit”.

With ryanodine the “increase of ER Ca2+ content (Tg-induced Ca2+ release from stores) versus control without ryanodine” value (RyR; 100 μM ryanodine, 1 h, 37 °C, control HT-22 cells, 2 μM Tg) was “about 2.2 fold”.
